molecular target: human recombinant H-PGDS (Homo sapiens, UniProt O60760); experiment: Fluorescence intensity h-PGDS TBA enzyme assay; assay type: biochemical; settings: Examples up to 622 (and 3a, 3b)
Sequence (O60760 whole entry): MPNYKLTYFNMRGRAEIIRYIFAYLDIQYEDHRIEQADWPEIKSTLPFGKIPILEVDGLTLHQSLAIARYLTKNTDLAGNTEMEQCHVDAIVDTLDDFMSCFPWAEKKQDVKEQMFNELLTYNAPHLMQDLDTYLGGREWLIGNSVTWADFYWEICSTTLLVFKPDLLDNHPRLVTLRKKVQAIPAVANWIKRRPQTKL

Point of comparison: `O=C(N[C@H]1CN(c2cnc3ccccc3n2)C[C@@H]1O)c1ccc(-c2cccc(F)c2)nc1` (relative stereo) [Example 613, trans-6-(3-Fluorophenyl)-N-[4-hydroxy-1-quinoxalin-2-ylpyrrolidin-3-yl]nicotinamide], IC50 3.57 nM. Against it:
- O=C(NC1CN(c2ncccc2C(F)(F)F)C1)c1ccc(-c2cccc(F)c2)nc1 [Example 604, 6-(3-Fluorophenyl)-N-{1-[3-(trifluoromethyl)pyridin-2-yl]azetidin-3-yl}nicotinamide] — 3.2-fold higher, 11.5 nM
- O=C(NC1CCN(Cc2cccc(F)c2F)CC1)c1ccc(-c2cccc(F)c2)nc1 [Example 240, N-[1-(2,3-Difluorobenzyl)piperidin-4-yl]-6-(3-fluorophenyl)nicotinamide] — 20-fold lower, 0.181 nM
- O=C(NC1CCN(c2nccc(-c3ccccc3CCO)n2)CC1)c1ccc(-c2cccc(F)c2)nc1 [Example 119, 6-(3-Fluorophenyl)-N-(1-{4-[2-(2-hydroxyethyl)phenyl]pyrimidin-2-yl}piperidin-4-yl)nicotinamide] — within 1.5-fold, 3.74 nM
- COCCn1c(CN2CCC(NC(=O)c3ccc(-c4cccc(F)c4)nc3)CC2)nc2ccccc21 [Example 420, 6-(3-Fluorophenyl)-N-(1-{[1-(2-methoxyethyl)-1H-benzimidazol-2-yl]methyl}piperidin-4-yl)nicotinamide] — within 1.5-fold, 3.4 nM
- COc1cc(OC)cc(C(C)N2CCC(NC(=O)c3ccc(-c4cccc(F)c4)nc3)CC2)c1 (centres unmarked) [Example 544, N-{1-[1-(3,5-Dimethoxyphenyl)ethyl]piperidin-4-yl}-6-(3-fluorophenyl)nicotinamide] — 2.8-fold lower, 1.27 nM
- O=C(NC1CCN(Cc2nccs2)CC1)c1ccc(-c2cccc(F)c2)nc1 [Example 216, 6-(3-Fluorophenyl)-N-[1-(1,3-thiazol-2-ylmethyl)piperidin-4-yl]nicotinamide] — 9.9-fold lower, 0.36 nM
- O=C(NC1CCN(Cc2ccon2)CC1)c1ccc(-c2cccc(F)c2)nc1 [Example 363, 6-(3-Fluorophenyl)-N-[1-(isoxazol-3-ylmethyl)piperidin-4-yl]nicotinamide] — 12-fold lower, 0.299 nM
- COc1cccc(F)c1CN1CCC(NC(=O)c2ccc(-c3cccc(F)c3)nc2)CC1 [Example 211, N-[1-(2-Fluoro-6-methoxybenzyl)piperidin-4-yl]-6-(3-fluorophenyl)nicotinamide] — 7.9-fold lower, 0.453 nM
- CCOC(=O)c1cccnc1N1CCC(NC(=O)c2ccc(-c3cccc(F)c3)nc2)CC1 [Example 66, Ethyl 2-[4-({[6-(3-fluorophenyl)pyridin-3-yl]carbonyl}amino)piperidin-1-yl]nicotinate] — 5.7-fold lower, 0.627 nM
- CC(CCO)N1CCC(NC(=O)c2ccc(-c3cccc(F)c3)nc2)CC1 (centres unmarked) [Example 550, 6-(3-Fluorophenyl)-N-[1-(3-hydroxy-1-methylpropyl)piperidin-4-yl]nicotinamide] — 1.5-fold lower, 2.38 nM
- COc1ccc(C(C)N2CCC(NC(=O)c3ccc(-c4cccc(F)c4)nc3)CC2)cc1 (centres unmarked) [Example 535, 6-(3-Fluorophenyl)-N-{1-[1-(4-methoxyphenyl)ethyl]piperidin-4-yl}nicotinamide] — 1.7-fold lower, 2.11 nM
- N#Cc1cnc(N2CCC(NC(=O)c3ccc(-c4cccc(F)c4)nc3)CC2)nc1N [Example 126, N-[1-(4-Amino-5-cyanopyrimidin-2-yl)piperidin-4-yl]-6-(3-fluorophenyl)nicotinamide] — 5.4-fold lower, 0.656 nM
- CCOc1ccc(CN2CCC(NC(=O)c3ccc(-c4cccc(F)c4)nc3)CC2)cc1 [Example 234, N-[1-(4-Ethoxybenzyl)piperidin-4-yl]-6-(3-fluorophenyl)nicotinamide] — 2.2-fold lower, 1.65 nM
- Cc1ccc(CN2CCC(NC(=O)c3ccc(-c4cccc(F)c4)nc3)CC2)c(F)c1 [Example 503, N-[1-(2-Fluoro-4-methylbenzyl)piperidin-4-yl]-6-(3-fluorophenyl)nicotinamide] — within 1.5-fold, 2.7 nM
- O=C(NC1CCN(Cc2ccnc3ncccc23)CC1)c1ccc(-c2cccc(F)c2)nc1 [Example 452, 6-(3-Fluorophenyl)-N-[1-(1,8-naphthyridin-4-ylmethyl)piperidin-4-yl]nicotinamide] — 4.9-fold lower, 0.724 nM
- O=C(NC1CCN(Cc2cccc(-c3ncccn3)c2)CC1)c1ccc(-c2cccc(F)c2)nc1 [Example 181, 6-(3-Fluorophenyl)-N-[1-(3-pyrimidin-2-ylbenzyl)piperidin-4-yl]nicotinamide] — within 1.5-fold, 3.4 nM
- O=C(NC1CCN(CC2CCc3nc(CC4CC4)ncc3C2)CC1)c1ccc(-c2cccc(F)c2)nc1 (centres unmarked) [Example 399, N-(1-{[2-(cyclopropylmethyl)-5,6,7,8-tetrahydroquinazolin-6-yl]methyl}piperidin-4-yl)-6-(3-fluorophenyl)nicotinamide] — 3.5-fold lower, 1.02 nM
- O=C(NC1CCN(c2nnnn2CC2CC2)CC1)c1ccc(-c2cccc(F)c2)nc1 [Example 99, N-{1-[1-(Cyclopropylmethyl)-1H-tetrazol-5-yl]piperidin-4-yl}-6-(3-fluorophenyl)nicotinamide] — 1.7-fold lower, 2.08 nM
- COc1cc(CN2CCC(NC(=O)c3ccc(-c4cccc(F)c4)nc3)CC2)ccc1C [Example 496, 6-(3-Fluorophenyl)-N-[1-(3-methoxy-4-methylbenzyl)piperidin-4-yl]nicotinamide] — 6.3-fold lower, 0.569 nM
- CC(C)n1cnc2c(N3CCC(NC(=O)c4ccc(-c5cccc(F)c5)nc4)CC3)ncnc21 [Example 118, 6-(3-Fluorophenyl)-N-[1-(9-isopropyl-9H-purin-6-yl)piperidin-4-yl]nicotinamide] — 4-fold lower, 0.89 nM
- CCOc1cc(OC)ccc1CN1CCC(NC(=O)c2ccc(-c3cccc(F)c3)nc2)CC1 [Example 306, N-[1-(2-Ethoxy-4-methoxybenzyl)piperidin-4-yl]-6-(3-fluorophenyl)nicotinamide] — within 1.5-fold, 2.71 nM
- CC(C)CN(C)C(=O)c1ccc(N2CCC(NC(=O)c3ccc(-c4cccc(F)c4)nc3)CC2)nc1 [Example 575, 6-[4-({[6-(3-Fluorophenyl)pyridin-3-yl]carbonyl}amino)piperidin-1-yl]-N-isobutyl-N-methylnicotinamide] — 1.6-fold lower, 2.24 nM
- Cc1cc(CN2CCC(NC(=O)c3ccc(-c4cccc(F)c4)nc3)CC2)ccc1F [Example 302, N-[1-(4-Fluoro-3-methylbenzyl)piperidin-4-yl]-6-(3-fluorophenyl)nicotinamide] — 5.6-fold lower, 0.636 nM
- O=C(NC1CCN(c2ncc3c(n2)CCC3)C1)c1ccc(-c2cccc(F)c2)nc1 (centres unmarked) [Example 595, N-[1-(6,7-Dihydro-5H-cyclopenta[d]pyrimidin-2-yl)pyrrolidin-3-yl]-6-(3-fluorophenyl)nicotinamide] — 3.4-fold lower, 1.06 nM
- Cc1cccc(-c2ccc(C(=O)NC3CCN(Cc4ccccc4)CC3)cn2)c1 [Example 23, N-(1-Benzylpiperidin-4-yl)-6-(3-methylphenyl)nicotinamide] — 2.1-fold lower, 1.72 nM
- O=C(NC1CCN(Cc2ccccc2-c2cncnc2)CC1)c1ccc(-c2cccc(F)c2)nc1 [Example 342, 6-(3-Fluorophenyl)-N-[1-(2-pyrimidin-5-ylbenzyl)piperidin-4-yl]nicotinamide] — 13-fold lower, 0.281 nM
- O=C(NC1CCN(c2ncnc3ccc(Cl)cc23)CC1)c1ccc(-c2cccc(F)c2)nc1 [Example 38, N-(1-(6-Chloroquinazolin-4-yl)piperidin-4-yl)-6-(3-fluorophenyl)nicotinamide] — 3.4-fold lower, 1.04 nM
- CCOC(=O)Cn1cc(CN2CCC(NC(=O)c3ccc(-c4cccc(F)c4)nc3)CC2)cn1 [Example 466, Ethyl (4-{[4-({[6-(3-fluorophenyl)pyridin-3-yl]carbonyl}amino)piperidin-1-yl]methyl}-1H-pyrazol-1-yl)acetate] — 2.4-fold lower, 1.49 nM
